For experiment [1], the target named is Toll-like receptor 1/2 (Homo sapiens, UniProt O60603+Q15399). In words: Agonist activity at TLR2/TLR1 in human THP-1 cells. The class given is cell-based.
In experiment [2] the target is Toll-like receptor 1/2 (Mus musculus). In words: Agonist activity at TLR2/TLR1 in mouse Macrophage cell line.

Structures are written as SMILES. Some results are limits rather than exact numbers.

A word on the EC50: it is the concentration that produces a half-maximal response.

Sequence of Toll-like receptor 1/2 (O60603 whole entry): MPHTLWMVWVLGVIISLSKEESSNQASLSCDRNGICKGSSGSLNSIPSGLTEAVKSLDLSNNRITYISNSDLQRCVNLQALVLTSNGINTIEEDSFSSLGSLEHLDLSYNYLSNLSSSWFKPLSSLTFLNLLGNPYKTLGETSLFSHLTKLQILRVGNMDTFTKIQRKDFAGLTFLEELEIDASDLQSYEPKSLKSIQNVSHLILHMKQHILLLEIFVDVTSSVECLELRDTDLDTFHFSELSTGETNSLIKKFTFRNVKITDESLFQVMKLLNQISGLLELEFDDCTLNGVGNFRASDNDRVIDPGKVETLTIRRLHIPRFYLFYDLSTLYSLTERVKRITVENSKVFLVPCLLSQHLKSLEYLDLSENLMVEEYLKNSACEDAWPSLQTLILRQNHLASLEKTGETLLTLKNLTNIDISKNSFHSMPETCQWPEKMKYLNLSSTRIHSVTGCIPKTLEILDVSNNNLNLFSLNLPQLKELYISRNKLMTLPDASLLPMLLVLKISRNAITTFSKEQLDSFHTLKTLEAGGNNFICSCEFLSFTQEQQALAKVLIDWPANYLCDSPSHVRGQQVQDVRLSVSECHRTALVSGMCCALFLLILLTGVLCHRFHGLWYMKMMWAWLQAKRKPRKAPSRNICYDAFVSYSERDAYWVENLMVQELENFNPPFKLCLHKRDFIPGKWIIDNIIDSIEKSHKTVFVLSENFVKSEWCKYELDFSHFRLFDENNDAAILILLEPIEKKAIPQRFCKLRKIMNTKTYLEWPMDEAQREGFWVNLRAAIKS
Sequence of Toll-like receptor 1/2 (Q15399 whole entry): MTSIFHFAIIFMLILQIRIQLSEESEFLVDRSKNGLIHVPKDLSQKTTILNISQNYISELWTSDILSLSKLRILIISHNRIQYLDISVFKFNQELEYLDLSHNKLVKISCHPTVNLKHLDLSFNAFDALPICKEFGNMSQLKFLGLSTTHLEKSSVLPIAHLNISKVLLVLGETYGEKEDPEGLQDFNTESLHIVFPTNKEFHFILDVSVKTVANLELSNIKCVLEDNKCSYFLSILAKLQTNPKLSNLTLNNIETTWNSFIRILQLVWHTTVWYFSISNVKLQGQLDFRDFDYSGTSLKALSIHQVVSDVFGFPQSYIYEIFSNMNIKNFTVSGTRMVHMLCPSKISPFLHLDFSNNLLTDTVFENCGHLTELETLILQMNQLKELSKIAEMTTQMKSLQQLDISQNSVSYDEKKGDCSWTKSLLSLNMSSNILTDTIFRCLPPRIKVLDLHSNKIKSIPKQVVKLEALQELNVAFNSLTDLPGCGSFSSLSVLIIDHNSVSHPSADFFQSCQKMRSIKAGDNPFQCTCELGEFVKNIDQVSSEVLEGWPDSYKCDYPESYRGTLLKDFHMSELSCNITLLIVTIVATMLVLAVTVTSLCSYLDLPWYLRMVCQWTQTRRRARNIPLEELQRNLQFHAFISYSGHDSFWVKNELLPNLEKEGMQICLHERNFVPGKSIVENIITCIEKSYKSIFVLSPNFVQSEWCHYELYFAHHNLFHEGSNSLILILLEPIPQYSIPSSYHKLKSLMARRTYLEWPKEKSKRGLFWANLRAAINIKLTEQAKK

As for `O=C(NCCc1ccc(-c2ccccc2)cc1)[C@@H]1CN(C(=O)c2ccc(C(=O)N3C[C@@H](C(=O)NCCc4ccc(-c5ccccc5)cc4)[C@H](C(=O)NCCc4ccc(-c5ccccc5)cc4)C3)cc2)C[C@H]1C(=O)NCCc1ccc(-c2ccccc2)cc1` (racemic), the EC50 in experiment [1] was above 5 µM.
On the same count and under the same terms, the value for `O=C(NCCc1ccccc1F)[C@@H]1CN(C(=O)c2ccc(C(=O)N3C[C@@H](C(=O)NCCc4ccccc4F)[C@H](C(=O)NCCc4ccccc4F)C3)cc2)C[C@H]1C(=O)NCCc1ccccc1F` (racemic) was above 5 µM.
In turn, `CCCCCCNC(=O)[C@@H]1CN(C(=O)c2ccc(C(=O)N3C[C@@H](C(=O)NCCCCCC)[C@H](C(=O)NCCCCCC)C3)cc2)C[C@H]1C(=O)NCCCCCC` had an EC50 in experiment [2] above 5 nM.
As for `O=C(NCCc1ccc(Cl)cc1)[C@@H]1CN(C(=O)c2ccc(C(=O)N3C[C@@H](C(=O)NCCc4ccc(Cl)cc4)[C@H](C(=O)NCCc4ccc(Cl)cc4)C3)cc2)C[C@H]1C(=O)NCCc1ccc(Cl)cc1` (racemic), in experiment [1], the concentration giving a half-maximal response (EC50) was above 5 µM.
Same read-out and setting: the value for `COC(=O)c1ccc(CCNC(=O)[C@@H]2CN(C(=O)c3ccc(C(=O)N4C[C@@H](C(=O)NCCc5ccc(C(=O)OC)cc5)[C@H](C(=O)NCCc5ccc(C(=O)OC)cc5)C4)cc3)C[C@H]2C(=O)NCCc2ccc(C(=O)OC)cc2)cc1` (racemic) was above 5 µM.
`CCCCCCCCCCNC(=O)[C@@H]1CN(C(=O)c2ccc(C(=O)N3C[C@@H](C(=O)NCCCCCCCCCC)[C@H](C(=O)NCCCCCCCCCC)C3)cc2)C[C@H]1C(=O)NCCCCCCCCCC`: the EC50 in experiment [2] is above 5 nM.
In experiment [1], `O=C(NCCc1ccc(O)cc1)[C@@H]1CN(C(=O)c2ccc(C(=O)N3C[C@@H](C(=O)NCCc4ccc(O)cc4)[C@H](C(=O)NCCc4ccc(O)cc4)C3)cc2)C[C@H]1C(=O)NCCc1ccc(O)cc1` (racemic) returned an EC50 above 5 µM.
Compound `O=C(NCCc1ccc(C(F)(F)F)cc1)[C@@H]1CN(C(=O)c2ccc(C(=O)N3C[C@@H](C(=O)NCCc4ccc(C(F)(F)F)cc4)[C@H](C(=O)NCCc4ccc(C(F)(F)F)cc4)C3)cc2)C[C@H]1C(=O)NCCc1ccc(C(F)(F)F)cc1` (racemic) gave a 50% effective concentration (EC50) in experiment [1] above 5 µM.
As for `O=C(NCCc1ccccc1)[C@@H]1CN(C(=O)c2ccc(C(=O)N3C[C@@H](C(=O)NCCc4ccc5ccccc5c4)[C@H](C(=O)NCCc4ccc5ccccc5c4)C3)cc2)C[C@H]1C(=O)NCCc1ccc2ccccc2c1` (racemic), the half-maximal effective concentration (EC50) in experiment [1] was above 5 µM.
Take `COc1ccc(CCNC(=O)[C@@H]2CN(C(=O)c3ccc(C(=O)N4C[C@@H](C(=O)NCCc5ccc(OC)cc5)[C@H](C(=O)NCCc5ccc(OC)cc5)C4)cc3)C[C@H]2C(=O)NCCc2ccc(OC)cc2)cc1` (racemic): in experiment [1], the half-maximal effective concentration (EC50) is above 5 µM.
The same measure, in the same setting: next, `Cc1ccc(CCNC(=O)[C@@H]2CN(C(=O)c3ccc(C(=O)N4C[C@@H](C(=O)NCCc5ccc(C)cc5)[C@H](C(=O)NCCc5ccc(C)cc5)C4)cc3)C[C@H]2C(=O)NCCc2ccc(C)cc2)cc1` (racemic): above 5 µM.
Still for that read-out and setting: next, `N#Cc1ccc(CCNC(=O)[C@@H]2CN(C(=O)c3ccc(C(=O)N4C[C@@H](C(=O)NCCc5ccc(C#N)cc5)[C@H](C(=O)NCCc5ccc(C#N)cc5)C4)cc3)C[C@H]2C(=O)NCCc2ccc(C#N)cc2)cc1` (racemic): above 5 µM; `Nc1ccc(CCNC(=O)[C@@H]2CN(C(=O)c3ccc(C(=O)N4C[C@@H](C(=O)NCCc5ccc(N)cc5)[C@H](C(=O)NCCc5ccc(N)cc5)C4)cc3)C[C@H]2C(=O)NCCc2ccc(N)cc2)cc1` (racemic): above 5 µM; `O=C(NCCc1ccc([N+](=O)[O-])cc1)[C@@H]1CN(C(=O)c2ccc(C(=O)N3C[C@@H](C(=O)NCCc4ccc([N+](=O)[O-])cc4)[C@H](C(=O)NCCc4ccc([N+](=O)[O-])cc4)C3)cc2)C[C@H]1C(=O)NCCc1ccc([N+](=O)[O-])cc1` (racemic): above 5 µM.
Still for that read-out and setting: the value for `O=C(NCCc1ccc(Br)cc1)[C@@H]1CN(C(=O)c2ccc(C(=O)N3C[C@@H](C(=O)NCCc4ccc(Br)cc4)[C@H](C(=O)NCCc4ccc(Br)cc4)C3)cc2)C[C@H]1C(=O)NCCc1ccc(Br)cc1` (racemic) was above 5 µM.

Source of the values: ChEMBL document CHEMBL5226282, “TLR2 Agonistic Small Molecules: Detailed Structure-Activity Relationship, Applications, and Future Prospects” (J Med Chem, 2021).
